Data taken from PubChem BioAssay AID192 (DTP/NCI, 2004).
“And” between values parts separate entries of the source, which are not always exact repeats. Equal values may be shown once. Toxic doses and inconclusive results are not listed.

Tested on: BDF1 mice, B16 melanoma ip, median survival T/C
Assay: NCI In Vivo Anticancer Drug Screen. Data for tumor model B16 Melanoma (intraperitoneal) in B6D2F1 (BDF1) mice
Conditions: endpoint: median survival time, higher = longer survival
Summary of the method: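 Read-out: survival or tumor size, given as treated/control ratio. Controls received vehicle only; animals bore transplantable tumors.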

[1] = dose: 25.0 mg/kg/injection, schedule: Q01DX009 (ip), vehicle: saline
[2] = dose: 50.0 mg/kg/injection, schedule: Q01DX009 (ip), vehicle: saline
[3] = dose: 100.0 mg/kg/injection, schedule: Q01DX009 (ip), vehicle: saline
[4] = dose: 12.5 mg/kg/injection, schedule: Q01DX009 (ip), vehicle: saline with Tween-80
[5] = dose: 25.0 mg/kg/injection, schedule: Q01DX009 (ip), vehicle: saline with Tween-80
[6] = dose: 100.0 mg/kg/injection, schedule: Q01DX009 (ip), vehicle: saline with Tween-80
[7] = dose: 200.0 mg/kg/injection, schedule: Q01DX009 (ip), vehicle: saline with Tween-80
[8] = dose: 400.0 mg/kg/injection, schedule: Q01DX009 (ip), vehicle: saline with Tween-80
[9] = dose: 6.25 mg/kg/injection, schedule: Q01DX009 (ip), vehicle: Klucel (hydroxypropylcellulose) (HPC)
[10] = dose: 6.25 mg/kg/injection, schedule: Q01DX009 (ip), vehicle: saline
[11] = dose: 12.5 mg/kg/injection, schedule: Q01DX009 (ip), vehicle: Klucel (hydroxypropylcellulose) (HPC)
[12] = dose: 12.5 mg/kg/injection, schedule: Q01DX009 (ip), vehicle: saline
[13] = dose: 25.0 mg/kg/injection, schedule: Q01DX009 (ip), vehicle: Klucel (hydroxypropylcellulose) (HPC)
[14] = dose: 50.0 mg/kg/injection, schedule: Q01DX009 (ip), vehicle: saline with Tween-80
[15] = dose: 50.0 mg/kg/injection, schedule: Q01DX009 (ip), vehicle: Klucel (hydroxypropylcellulose) (HPC)
[16] = dose: 100.0 mg/kg/injection, schedule: Q01DX009 (ip), vehicle: Klucel (hydroxypropylcellulose) (HPC)
[17] = dose: 200.0 mg/kg/injection, schedule: Q01DX009 (ip), vehicle: Klucel (hydroxypropylcellulose) (HPC)
[18] = dose: 400.0 mg/kg/injection, schedule: Q01DX009 (ip), vehicle: Klucel (hydroxypropylcellulose) (HPC)
[19] = dose: 0.5 mg/kg/injection, schedule: Q01DX009 (ip), vehicle: saline
[20] = dose: 2.0 mg/kg/injection, schedule: Q01DX009 (ip), vehicle: saline

Nc1c(S(=O)(=O)O)cc(Nc2ccccc2)c2c1C(=O)c1ccccc1C2=O
T/C [1]: 121 % of control
T/C [2]: 115 % of control
T/C [3]: 115 % of control

O=C(CCN1CCCCC1)c1cccc([N+](=O)[O-])c1
T/C (dose: 12.5 mg/kg/injection, schedule: Q04DX003 (ip), vehicle: saline): 105 % of control
T/C (dose: 25.0 mg/kg/injection, schedule: Q04DX003 (ip), vehicle: saline): 113 % of control
T/C (dose: 50.0 mg/kg/injection, schedule: Q04DX003 (ip), vehicle: saline): 100 % of control
T/C (dose: 100.0 mg/kg/injection, schedule: Q04DX003 (ip), vehicle: Klucel (hydroxypropylcellulose) (HPC)): 94 % of control

CCCCNC(C)(C)C(SSSC(c1cccs1)C(C)(C)NCCCC)c1cccs1 (configuration not stated)
T/C [4]: 96 % of control
T/C [5]: 86 % of control

NC(=S)N/N=C1/c2cc(Cl)ccc2-c2c(NC(=O)C(Cl)Cl)cc(Cl)cc21
T/C [6]: 95 % of control
T/C [7]: 93 % of control
T/C [8]: 86 % of control

Cc1cc2nc3ccc(N)cc3oc-2cc1=[N+](C)C
T/C [9]: 105 % of control
T/C [10]: 123 % of control
T/C [11]: 110 % of control
T/C [12]: 119 % of control
T/C [13]: 117 % of control

CCN(CC)CCOC(=O)c1ccc(NC(=O)Nc2ccc(C(=O)OCCN(CC)CC)cc2)cc1
T/C [10]: 95 % of control
T/C [12]: 88 % of control
T/C [5]: 97 % of control
T/C [1]: 102 % of control
T/C [14]: 110 % of control
T/C [6]: 108 % of control

NC(=O)CCC(N)C(=O)O.[Cl-].[Cl-].[Cl-].[Cl-].[Pt+2] (configuration not stated)
T/C (dose: 1.56 mg/kg/injection, schedule: Q01DX009 (ip), vehicle: water): 110 % of control
T/C (dose: 3.13 mg/kg/injection, schedule: Q01DX009 (ip), vehicle: water): 110 % of control
T/C (dose: 12.5 mg/kg/injection, schedule: Q01DX009 (ip), vehicle: water): 120 % of control
T/C (dose: 25.0 mg/kg/injection, schedule: Q01DX009 (ip), vehicle: water): 112 % of control

CC1(C)CC(O)(Cc2ccccc2)C(=O)c2ccccc21 (configuration not stated)
T/C [15]: 94 % of control
T/C [16]: 94 % of control
T/C [17]: 99 % of control
T/C [18]: 97 % of control

C[C@@H]1C[C@@]2(C)[C@@H](CC[C@@H]3[C@@H]2CC[C@]2(C)[C@@H](OC4CCCCO4)CC[C@@H]32)CC1=O (some centres not stated)
T/C [13]: 105 % of control
T/C [15]: 100 % of control
T/C [16]: 100 % of control

CN(C)CCCN1c2ccccc2CCc2ccc(Cl)cc21
T/C [10]: 101 % of control
T/C [12]: 108 % of control
T/C [1]: 115 % of control
T/C [2]: 98 % of control

O=C(O)CCC(=O)CCC(=O)c1ccccc1
T/C [14]: 95 % of control
T/C [6]: 100 % of control
T/C [7]: 93 % of control

C=C(OC)C(Nc1cc(OC)c(OC)cc1C(=O)OC1CC(O[C@@H]2C(=O)C(NC(=O)OC)=C3/C(=C\CSSSC)[C@]2(O)C#C/C=C\C#C[C@@H]3OC2OC(C)C(NOC3CC(O)C(SC)C(C)O3)C(O)C2OC2CC(OC)C(NCCC)CO2)OC(C)C1O)OC (some centres not stated)
T/C (dose: 0.1 micrograms/kg/injection, schedule: Q01DX009 (ip), vehicle: methylcellulose (MC)): 178 % of control
T/C (dose: 0.2 micrograms/kg/injection, schedule: Q01DX009 (ip), vehicle: methylcellulose (MC)): 172 % of control
T/C (dose: 0.4 micrograms/kg/injection, schedule: Q01DX009 (ip), vehicle: methylcellulose (MC)): 175 % of control
T/C (dose: 0.4 micrograms/kg/injection, schedule: Q04DX003 (ip), vehicle: methylcellulose (MC)): 160 % of control
T/C (dose: 0.8 micrograms/kg/injection, schedule: Q01DX009 (ip), vehicle: methylcellulose (MC)): 182 % of control
T/C (dose: 1.6 micrograms/kg/injection, schedule: Q01DX009 (ip), vehicle: methylcellulose (MC)): 182 % of control
T/C (dose: 1.6 micrograms/kg/injection, schedule: Q04DX003 (ip), vehicle: methylcellulose (MC)): 168 % of control
T/C (dose: 3.2 micrograms/kg/injection, schedule: Q04DX003 (ip), vehicle: methylcellulose (MC)): 153 % of control
T/C (dose: 6.4 micrograms/kg/injection, schedule: Q04DX003 (ip), vehicle: methylcellulose (MC)): 106 % of control

C[N+](C)(C)Cc1ccccc1
T/C [9]: 109 % of control
T/C [11]: 107 % of control
T/C [13]: 101 % of control

CN(C)CCCN1c2ccccc2Sc2ccc(C(F)(F)F)cc21
T/C (dose: 0.06 mg/kg/injection, schedule: Q01DX009 (ip), vehicle: saline): 89 % of control
T/C (dose: 0.25 mg/kg/injection, schedule: Q01DX009 (ip), vehicle: saline): 97 % of control
T/C [19]: 109 % of control
T/C [20]: 104 % of control
T/C (dose: 8.0 mg/kg/injection, schedule: Q01DX009 (ip), vehicle: saline): 109 % of control

CCCn1c(=S)[nH]c2ccccc2c1=O
T/C [13]: 120 % of control
T/C [5]: 100 % of control
T/C [15]: 100 % of control
T/C [14]: 92 % of control
T/C (dose: 66.0 mg/kg/injection, schedule: Q01DX009 (ip), vehicle: saline with Tween-80): 100 % of control
T/C [16]: 86 % of control and 102 % of control
T/C [6]: 87 % of control and 94 % of control
T/C (dose: 150.0 mg/kg/injection, schedule: Q01DX009 (ip), vehicle: saline with Tween-80): 86 % of control

CCCCCCC(=O)/C=C/c1cccc(OCOCC)c1
T/C [4]: 99 % of control
T/C [5]: 94 % of control
T/C [14]: 102 % of control
T/C [6]: 98 % of control

COc1cc2c(cc1OC)C1CCN3C(=O)CCC3N1CC2 (configuration not stated)
T/C [6]: 94 % of control
T/C [7]: 91 % of control
T/C [8]: 105 % of control

CCOc1ccccc1NC(=O)Nc1cccc(Cl)c1
T/C [16]: 106 % of control
T/C [17]: 96 % of control
T/C [18]: 106 % of control

Cc1cc2ccc(OC(=O)c3ccc(N=C(N)N)cc3)cc2oc1=O
T/C [4]: 91 % of control
T/C [5]: 100 % of control
T/C [6]: 86 % of control
T/C (dose: 100.0 mg/kg/injection, schedule: Q04DX003 (ip), vehicle: saline with Tween-80): 92 % of control
T/C (dose: 200.0 mg/kg/injection, schedule: Q04DX003 (ip), vehicle: saline with Tween-80): 95 % of control
T/C (dose: 400.0 mg/kg/injection, schedule: Q04DX003 (ip), vehicle: saline with Tween-80): 95 % of control

Cc1cc2nc(-c3ccccc3O)[nH]c2cc1C
T/C [16]: 93 % of control and 94 % of control
T/C [17]: 94 % of control and 106 % of control

CC(=O)OCC12CCC(C)=CC1OC1C(=O)CC2(C)C12CO2 (configuration not stated)
T/C [19]: 101 % of control
T/C (dose: 1.0 mg/kg/injection, schedule: Q01DX009 (ip), vehicle: saline): 110 % of control
T/C [20]: 113 % of control
T/C (dose: 4.0 mg/kg/injection, schedule: Q01DX009 (ip), vehicle: saline): 98 % of control

Cc1ccc(NC(=O)CCl)cc1Cl
T/C [5]: 97 % of control
T/C [14]: 102 % of control
T/C [6]: 101 % of control

CC(C)(C)OC(=O)NC(CCC(N)=O)C(=O)O (configuration not stated)
T/C [2]: 96 % of control
T/C [3]: 97 % of control
T/C (dose: 200.0 mg/kg/injection, schedule: Q01DX009 (ip), vehicle: saline): 96 % of control

CC(C)CC(Br)C(=O)NCC(=O)NC(Cc1ccccc1)C(=O)O (configuration not stated)
T/C [14]: 97 % of control
T/C [6]: 95 % of control
T/C [7]: 97 % of control

Cc1cc(=O)[nH]c(N/N=C/c2ccccc2O)n1
T/C [13]: 93 % of control
T/C [15]: 87 % of control
T/C [16]: 87 % of control
T/C [17]: 87 % of control

CCCNCCNc1ccc(NCCNCCC)c2c1C(=O)c1ccccc1C2=O
T/C (dose: 16.0 mg/kg/injection, schedule: Q01DX009 (ip), vehicle: acid diluted with saline): 112 % of control
T/C (dose: 32.0 mg/kg/injection, schedule: Q01DX009 (ip), vehicle: acid diluted with saline): 99 % of control

COC1C=CC23c4cc5c(cc4C(O)OC2CN(C)C3C1)OCO5 (configuration not stated)
T/C [10]: 101 % of control and 109 % of control
T/C [12]: 98 % of control and 108 % of control
T/C [1]: 112 % of control and 116 % of control
T/C [2]: 112 % of control

COC(=O)c1cc(I)ccc1O
T/C [6]: 102 % of control
T/C [7]: 104 % of control
T/C [8]: 102 % of control

O=C(O)c1c(O)c(-c2ccccc2)nc2ccccc12
T/C [15]: 103 % of control
T/C [16]: 103 % of control

N#CC1C(=O)c2ccccc2C1=O
T/C [5]: 114 % of control
T/C [14]: 106 % of control

ClC1C(Cl)C(Cl)C(Cl)C(Cl)C1Cl (configuration not stated)
T/C [13]: 95 % of control
T/C [5]: 100 % of control
T/C [15]: 105 % of control
T/C [14]: 99 % of control
T/C [16]: 93 % of control
T/C [17]: 93 % of control
T/C [7]: 96 % of control
T/C [8]: 89 % of control
